From patent publication US10105367B2, “Therapeutic thiophene-, furan-, and pyridine-fused azolopyrimidin-5-(6h)-ones” (Dart Neuroscience (Cayman) Ltd., priority 2012, dated 2018) come the findings set out here.

Each structure is given as a SMILES string. Values joined by “and” are separate entries in the source; they are usually repeats but may differ in a detail not shown here. Identical values can stand only once.

One experiment deals with human PDE1B (Homo sapiens (Human), UniProt Q01064). Kind of experiment: PDE1B inhibitory assay (IMAP TR-FRET). The settings on record: PDE1B pIC50, negative log of half-maximal molar inhibitory concentration; 200 nM FAM-cAMP, Calmodulin, CaCl2.
Procedure: PDE1B inhibition was determined by an IMAP TR-FRET assay.
After a brief centrifugation, the plates were incubated for 30 minutes at room temperature. The assay was terminated by adding 5 μL IMAP binding reagent/Tb complex (Molecular Devices, Sunnyvale, Calif.) to each well.
Plates were incubated 1 hour at room temperature and read on a Viewlux multimode plate reader (Perkin Elmer). The instrument was set to excite using the DUG11 filter and measure using 490/10 nm and 520/10 nm filters. Ratios of acceptor and donor were then calculated.
For IC50 calculations, the values of % efficacy versus a series of compound concentrations were then plotted using non-linear regression analysis of sigmoidal dose-response curves generated with the equation Y=B+(T−B)/1+10((Log EC50−X)×Hill Slope), where Y=percent activity, B=minimum percent efficacy, T=maximum percent efficacy, X=logarithm of compound and Hill Slope=slope factor or Hill coefficient. The IC50 value was determined by the concentration causing a half-maximal percent efficacy.
`COc1ccc(Cn2c(=O)n3ncnc3c3cc(CN4CC5CC4CO5)cnc32)cc1` (stereo not drawn) [Example 218, 9-(2-Oxa-5-azabicyclo[2.2.1]heptan-5-ylmethyl)-6-(4-methoxybenzyl)pyrido[3,2-e][1,2,4]triazolo[1,5-c]pyrimidin-5(6H)-one] showed a half-inhibitory concentration (IC50) of 100 to 1000 nM. Same read-out and setting: for `COc1ccc(Cn2c(=O)n3ncnc3c3cc(CN(C)C)cnc32)cc1` [Example 219] the value was 1000 to 10000 nM. Still for that read-out and setting: for `COc1ccc(Cn2c(=O)n3ncnc3c3cc(CN4CCN(C)CC4)cnc32)cc1` [Example 221] the value was 100 to 1000 nM. In the case of `COc1ccc(Cn2c(=O)n3ncnc3c3cc(CN4CCOC(C)(C)C4)cnc32)cc1` [Example 223], the IC50 fell in the range of 100 to 1000 nM. Same read-out and setting: for `COc1ccc(Cn2c(=O)n3ncnc3c3cc(CN4CC(F)(F)OC(F)(F)C4)cnc32)cc1` [Example 226] the value was 100 to 1000 nM; for `COc1ccc(Cn2c(=O)n3ncnc3c3cc(CN4CC5CCC(C4)O5)cnc32)cc1` [Example 227], 100 to 1000 nM; for `COc1ccc(Cn2c(=O)n3ncnc3c3cc(CN4CCOCC4C)cnc32)cc1` (stereo not drawn) [Example 230], 100 to 1000 nM. `COc1ccc(Cn2c(=O)n3ncnc3c3nc(CN4C[C@@H](C)O[C@@H](C)C4)cnc32)cc1` [Example 231]: the IC50 was in the range of 100 to 1000 nM.

`COc1ccc(Cn2c(=O)n3ncnc3c3cc(CN4CCCN(C)CC4)cnc32)cc1` [Example 232]: the half-inhibitory concentration (IC50) was 1000 to 10000 nM.

With `COc1ccc(Cn2c(=O)n3ncnc3c3cc(CN4CCCOCC4)cnc32)cc1` [Example 233], the IC50 lay within 100 to 1000 nM.

As to `COc1ccc(Cn2c(=O)n3ncnc3c3cc(CN4CCCN(C(C)=O)CC4)cnc32)cc1` [Example 234], the IC50 was in the range of 100 to 1000 nM. Turning to `COc1ccc(Cn2c(=O)n3ncnc3c3cc(CN(C)C4CCCCC4)cnc32)cc1` [Example 235], the IC50 lay in the range of 1000 to 10000 nM.

`COc1ccc(Cn2c(=O)n3ncnc3c3cc(CN4CCC(OC)CC4)cnc32)cc1` [Example 236] registered an IC50 of 100 to 1000 nM. The same measure, in the same setting: as for `COc1ccc(Cn2c(=O)n3ncnc3c3cc(CN(C)C4CCOCC4)cnc32)cc1` [Example 237], the figure is 1000 to 10000 nM; as for `COCCN1CCN(Cc2cnc3c(c2)c2ncnn2c(=O)n3Cc2ccc(OC)cc2)CC1` [Example 238], 1000 to 10000 nM. Same read-out and setting: as for `COCCN(Cc1cnc2c(c1)c1ncnn1c(=O)n2Cc1ccc(OC)cc1)C(C)C` [Example 239], the figure is 100 to 1000 nM; as for `COc1ccc(Cn2c(=O)n3ncnc3c3ncc(CN4CCN(C)CC4)cc32)cc1` [Example 240], 1000 to 10000 nM.

In turn, `COc1ccc(Cn2c(=O)n3ncnc3c3ncc(CN4CCOCC4)cc32)cc1` [Example 241] showed an IC50 of 1000 to 10000 nM. Turning to `COc1ccc(Cn2c(=O)n3ncnc3c3ncc(CN4CCCCC4)cc32)cc1` [Example 242], the IC50 is 1000 to 10000 nM. On the same count and under the same terms, for `COc1ccc(Cn2c(=O)n3ncnc3c3ncc(CN4CCSCC4)cc32)cc1` [Example 243] the value was 1000 to 10000 nM; for `COc1ccc(Cn2c(=O)n3ncnc3c3ncc(CN4C[C@@H](C)O[C@@H](C)C4)cc32)cc1` [Example 244], 1000 to 10000 nM.

`COCCN(C)Cc1cnc2c(c1)c1ncnn1c(=O)n2Cc1ccc(OC)cc1` [Example 245]: the IC50 lay in the range of 100 to 1000 nM. Same read-out and setting: for `COc1ccc(Cn2c(=O)n3ncnc3c3cc(CN4C[C@@H](C)OC[C@H]4C)cnc32)cc1` [Example 248] the value was 100 to 1000 nM.

`COc1ccc(Cn2c(=O)n3ncnc3c3cc(CN4CCNCC4)cnc32)cc1` [Example 249, 6-(4-Methoxybenzyl)-9-(piperazin-1-ylmethyl)pyrido[3,2-e][1,2,4]triazolo[1,5-c]pyrimidin-5(6H)-one]: the IC50 lay in the range of 1000 to 10000 nM. Still for that read-out and setting: as for `COc1ccc(Cn2c(=O)n3ncnc3c3cc(CN4C[C@@H](C)N[C@@H](C)C4)cnc32)cc1` [Example 250], the figure is 1000 to 10000 nM; as for `COc1ccc(Cn2c(=O)n3ncnc3c3cc(CN4CCN(CC5CCOC5)CC4)cnc32)cc1` (stereo not drawn) [Example 251, 6-(4-Methoxybenzyl)-9-((4-((tetrahydrofuran-3-yl)methyl)piperazin-1-yl)methyl)pyrido[3,2-e][1,2,4]triazolo[1,5-c]pyrimidin-5(6H)-one], 1000 to 10000 nM.

As to `COc1ccc(Cn2c(=O)n3ncnc3c3cc(CN4CCN(S(C)(=O)=O)CC4)cnc32)cc1` [Example 252, 6-(4-methoxybenzyl)-9-((4-(methylsulfonyl)piperazin-1-yl)methyl)pyrido[3,2-e][1,2,4]triazolo[1,5-c]pyrimidin-5(6H)-one], the IC50 lay within 100 to 1000 nM.

On to `COc1ccc(Cn2c(=O)n3ncnc3c3cc(CN4CCN(C(=O)C(F)(F)F)CC4)cnc32)cc1` [Example 254], for which the IC50 fell in the range of 100 to 1000 nM.

`COc1ccc(Cn2c(=O)n3ncnc3c3cc(CN4CCN(C(=O)C5CCOC5)CC4)cnc32)cc1` (stereo not drawn) [Example 255] gave a half-inhibitory concentration (IC50) of 100 to 1000 nM. Still for that read-out and setting: for `COc1ccc(Cn2c(=O)n3ncnc3c3ccc(CN4CCOCC4)nc32)cc1` [Example 256, 6-(4-Methoxybenzyl)-8-(morpholinomethyl)pyrido[3,2-e][1,2,4]triazolo[1,5-c]pyrimidin-5(6H)-one] the value was 1000 to 10000 nM. On the same count and under the same terms, as for `COc1ccc(Cn2c(=O)n3ncnc3c3ccc(CN4C[C@@H](C)O[C@@H](C)C4)nc32)cc1` [Example 257], the figure is 100 to 1000 nM; as for `COc1ccc(Cn2c(=O)n3ncnc3c3ccc(CNCC4(C)COC4)nc32)cc1` [Example 258], 1000 to 10000 nM. Still for that read-out and setting: as for `COc1ccc(Cn2c(=O)n3ncnc3c3ccc(CN(C)CC4CCOC4)nc32)cc1` (stereo not drawn) [Example 259], the figure is 100 to 1000 nM; as for `COc1ccc(Cn2c(=O)n3ncnc3c3ccc(CN(C)C4CC4)nc32)cc1` [Example 260], 100 to 1000 nM; as for `COc1ccc(Cn2c(=O)n3ncnc3c3ccc(CN4CCN(S(C)(=O)=O)CC4)nc32)cc1` [Example 261], 100 to 1000 nM. `COc1ccc(Cn2c(=O)n3ncnc3c3ccc(CNCc4ccccc4)nc32)cc1` [Example 262]: the IC50 was in the range of 100 to 1000 nM. Still for that read-out and setting: as for `COc1ccc(Cn2c(=O)n3ncnc3c3ccc(CNc4ccccc4)nc32)cc1` [Example 263], the figure is 100 to 1000 nM.

Molecule `COc1ccc(Cn2c(=O)n3ncnc3c3ccc(CN4Cc5ccccc5C4)nc32)cc1` [Example 264] showed an IC50 of 100 to 1000 nM. Still for that read-out and setting: for `COc1ccc(Cn2c(=O)n3ncnc3c3cc(C(C)=O)cnc32)cc1` [Example 265, 9-Acetyl-6-(4-methoxybenzyl)pyrido[3,2-e][1,2,4]triazolo[1,5-c]pyrimidin-5(6H)-one] the value was 100 to 1000 nM.

In turn, `COc1ccc(Cn2c(=O)n3ncnc3c3cc(C(O)CN4CCOCC4)cnc32)cc1` (stereo not drawn) [Example 267, 9-(1-Hydroxy-2-morpholinoethyl)-6-(4-methoxybenzyl)pyrido[3,2-e][1,2,4]triazolo[1,5-c]pyrimidin-5(6H)-one] had an IC50 of 100 to 1000 nM. As for `COc1ccc(Cn2c(=O)n3ncnc3c3cc(C(F)CN4CCOCC4)cnc32)cc1` (stereo not drawn) [Example 269, 9-(1-Fluoro-2-morpholinoethyl)-6-(4-methoxybenzyl)pyrido[3,2-e][1,2,4]triazolo[1,5-c]pyrimidin-5(6H)-one], the IC50 was 100 to 1000 nM. On the same count and under the same terms, for `COc1ccc(Cn2c(=O)n3ncnc3c3cc(C(O)C(F)(F)F)cnc32)cc1` (stereo not drawn) [Example 271, 6-(4-Methoxybenzyl)-9-(2,2,2-trifluoro-1-hydroxyethyl)pyrido[3,2-e][1,2,4]triazolo[1,5-c]pyrimidin-5(6H)-one] the value was 100 to 1000 nM; for `C[C@@H]1CN(Cc2cnc3c(c2)c2ncnn2c(=O)n3Cc2ccc(OC(F)(F)F)cc2)C[C@H](C)O1` [Example 273, 9-(((2S,6R)-2,6-Dimethylmorpholino)methyl)-6-(4-(trifluoromethoxy)benzyl)pyrido[3,2-e][1,2,4]triazolo[1,5-c]pyrimidin-5(6H)-one], 100 to 1000 nM and 1000 to 10000 nM. On the same count and under the same terms, for `Cc1cc(Cn2c(=O)n3ncnc3c3cc(CN4C[C@@H](C)O[C@@H](C)C4)cnc32)ccc1F` [Example 274] the value was 100 to 1000 nM; for `C[C@@H]1CN(Cc2cnc3c(c2)c2ncnn2c(=O)n3Cc2ccc(F)cc2)C[C@H](C)O1` [Example 275], 100 to 1000 nM.

The experiment is the same for the next values; noted with them: negative log of half-maximal molar inhibitory concentration; 200 nM FAM-cAMP, Calmodulin, CaCl2.
As for `COc1ccc(Cn2c(=O)n3ncnc3c3cc(CN4C[C@@H](C)O[C@@H](C)C4)cnc32)cc1` [Example 220], the “PDE1B pIC50” value was more than 7.

Consider `CCC1CN(Cc2cnc3c(c2)c2ncnn2c(=O)n3Cc2ccc(OC)cc2)CCO1` (stereo not drawn) [Example 224], for which the “PDE1B pIC50” value was more than 7. Same read-out and setting: for `COc1ccc(Cn2c(=O)n3ncnc3c3cc(CN4CC(C)OCC4C)cnc32)cc1` (stereo not drawn) [Example 225] the value was more than 7; for `COc1ccc(Cn2c(=O)n3ncnc3c3cc(CN4CCC5(CCOCC5)N4C)cnc32)cc1` [Example 228], more than 7; for `COc1ccc(Cn2c(=O)n3ncnc3c3cc(CN4CCOC(C)C4)cnc32)cc1` (stereo not drawn) [Example 229], more than 7.

For `COc1ccc(Cn2c(=O)n3ncnc3c3cc(CN4CCN5C(=O)OCC5C4)cnc32)cc1` (stereo not drawn) [Example 246], the “PDE1B pIC50” value is more than 7. The same measure, in the same setting: for `COc1ccc(Cn2c(=O)n3ncnc3c3cc(CN4C[C@H](C)OC[C@@H]4C)cnc32)cc1` [Example 247] the value was more than 7; for `COc1ccc(Cn2c(=O)n3ncnc3c3cc(CN4CCN(S(=O)(=O)N(C)C)CC4)cnc32)cc1` [Example 253], more than 7. Regarding `COc1ccc(Cn2c(=O)n3ncnc3c3cc(C(C)N4C[C@@H](C)O[C@@H](C)C4)cnc32)cc1` (stereo partly drawn) [Example 266, 9-(1-((2S,6R)-2,6-Dimethylmorpholino)ethyl)-6-(4-methoxybenzyl)pyrido[3,2-e][1,2,4]triazolo[1,5-c]pyrimidin-5(6H)-one], the “PDE1B pIC50” value was more than 7.

Regarding `COc1ccc(Cn2c(=O)n3ncnc3c3cc(C(O)CN4C[C@@H](C)O[C@@H](C)C4)cnc32)cc1` (stereo partly drawn) [Example 268], the “PDE1B pIC50” value was more than 7. Still for that read-out and setting: for `COc1ccc(Cn2c(=O)n3ncnc3c3cc(C(F)CN4C[C@@H](C)O[C@@H](C)C4)cnc32)cc1` (stereo partly drawn) [Example 270] the value was more than 7; for `COc1ccc(Cn2c(=O)n3ncnc3c3cc(C(N4CCOCC4)C(F)(F)F)cnc32)cc1` (stereo not drawn) [Example 272, 6-(4-Methoxybenzyl)-9-(2,2,2-trifluoro-1-morpholinoethyl)pyrido[3,2-e][1,2,4]triazolo[1,5-c]pyrimidin-5(6H)-one], more than 7.
